According to patent US6403632B1, “Lactam metalloprotease inhibitors” (priority 2000, dated 2002):

Test system: cartilage degradation
Test: Acute Cartilage Degradation Rat Model
Type: in vivo
Details: rats
Excerpt: Acute Cartilage Degradation Rat Model A novel in vivo model of acute cartilage degradation in rats has been characterized as a method to determine the proteoglycan content in the synovial fluid after the induction of cartilage degradation.

COc1ccc2c(c1)c(CC(=O)O)c(C)n2C(=O)c1ccc(Cl)cc1 [Indomethacin]
inhibition of cartilage degradation, as measured by increased proteoglycan content in the synovial fluid: inactive
